Laboratory results: patent US5091381A, “2H-1,3,4-benzotriazepin-2-ones” (Biomeasure, Inc., priority 1991, dated 1992)
pKi: −log10 of the molar value. Like-named read-outs stand apart in the source and are kept apart here.

Tests used:
[1] = biological target: neural BZD (central BZD receptor); assay: Benzodiazepine receptor binding, neural (central) BZD; parameters: species or system rat
Description: (§1) Crude membranes were prepared by homogenization of a rat forebrain sample in 20 ml of ice-cold 50 mM phosphate buffer (81 mM Na^+, 9 mMK^+) buffer with a Brinkman Polytron (setting 6, 15 sec). Buffer was added to obtain a final volume of 40 ml, and the homogenate was centrifuged in a Sorval SS-34 rotor at 39,000 g for 10 min at 0°-4° C. The resulting supernatant was decanted and discarded. The pellet was rehomogenized in ice-cold buffer, diluted, and centrifuged as before. The final pellet was resuspended in the assay buffer and held on ice for the receptor binding assay.
(§2) The inhibition constants (Ki) were calculated from the equation Ki=IC50/(I+L/Kd), where L is the radioligand concentration and Kd is the equilibrium dissociation constant for the radioligand. The IC50 was derived from the inhibition data by linear least squares regression of log (B/Bt-B) versus log I, where I is the test compound concentration, Bt is the total amount of radioligand specifically bound, and B is the amount of specific binding in the presence of a given concentration of the unlabeled test compound. The IC50 is the antilog of log I, when the expression log (B/Bt-B) equals zero.

[2] = biological target: T1, peripheral BZD receptor (Rattus norvegicus, UniProt P16257); assay: Receptor binding assay, peripheral BZD ([3H]RO5-4864 displacement, rat forebrain membranes); settings: read-out: BENZODIAZEPINE RECEPTOR BINDING, PERIPHERAL BZD
T1 construct: Crude membranes were prepared by homogenization of a rat forebrain sample; from tissue; host or cells: rat forebrain crude membranes
Description: as §1
For the receptor binding assay, aliquots of the membrane preparation were incubated for 90 min at 4° C. in 50 mM phosphate buffer containing 0.5 nM [^3 H]RO-4864 and various concentrations of the unlabeled test compounds. The assay was terminated by rapid filtration through Whatman GF/B filters under vacuum. The filters were washed three times with 5-ml aliquots of ice-cold buffer, and the bound radioactivity trapped on the filters was counted by liquid scintillation spectrometry.
as §2

[3] = system: rat pancreatic tumor cell line (AR42J); assay: Proliferation assay (growth curves), AR42J; assay type: cell-based; settings: single application
Description: (§3) The rat pancreatic tumor cell line (AR42J) was obtained from the American Type Culture Collection. The human colon adenocarcinoma (HT-29) and mouse melanoma (B16 F10) were obtained from the in-house tumor bank. The HT-29 cell line is used to generate the CX-1 tumor in nude mice. All cell lines were propagated in Dulbecco's modified Eagle's medium (DMEM) supplemented with 10% fetal bovine serum (FBS) and incubated in a humidified atmosphere of 90% air/ 10% CO2 at 37° C. These cell lines were maintained at Biomeasure, Inc. and were free of mycoplasma as judged by the indirect (Hoechst) method and the direct (Agar) method.
(§4) Growth Curves--The AR42J and HT-29 cells were plated at 5×10^4 cells per well and the B16 F10 was plated at 1×10^4 cells per well in 24 well tissue cult ure dishes in 1ml of DMEM supplemented with 10% FBS. […] The tissue culture plates were incubated at 37° C. in a humidified atomsphere of 90% air/10% CO2 for up to 8 days. At various times, single cell suspensions were obtained by washing the wells with DMEM, adding 0.5 ml of 0.05% trypsin--0.53 mM EDTA, incubating at 37° C. for 5 min., triturating, and adding 0.5ml of DMEM supplemented with 10% FBS to inhibit the trypsin. The total content of each well was added to Isoton and counted using a Coulter Counter model ZF attached to a Channelizer model 256 to ensure that a uniform single cell population was obtained.

[4] = system: mouse melanoma (B16 F10); assay: Proliferation assay (growth curves), B16 F10; assay type: cell-based; settings: 100 nM, single application
Description: as §3, §4

[5] = system: human colon adenocarcinoma (HT-29); assay: Proliferation assay (growth curves), HT-29; assay type: cell-based
Description: as §3, §4

[6] = read-out: BENZODIAZEPINE RECEPTOR BINDING, NEURAL BZD

CN1C(=O)CN=C(c2ccccc2)c2cc(Cl)ccc21 [DIAZEPAM, diazepam] showed a pKi ([1]; read-out: BENZ[…] BINDING, NEURAL BZD) of 8.08.

With CN1C(=O)CN=C(c2ccc(Cl)cc2)c2cc(Cl)ccc21 [RO5-4864] the pKi [1, 6] was 5.14.

In the case of CN1C(=O)N(C(=O)c2ccc(Cl)c(Cl)c2)N=C(c2ccccc2)c2ccccc21 [BIM-18156], the pKi [2] was 8.77.

CN1C(=O)N(C(=O)c2ccc(F)cc2)N=C(c2ccccc2)c2ccccc21 [BIM-18154] was tested, and the “inhibition of the growth of AR42J cells” value [3] was “did not inhibit”, the “inhibiting the growth of B16 F10 cells” value [4] was “marginally active” and the pKi [2] was 9.17. For the same compound, the inhibition of growth ([5]; HT-29, day 4, single application) was roughly 35% and the “inhibiting the growth of HT-29 cells” value ([5]; single application) was “active”.

Compound CN1C(=O)N(Cc2ccc(F)cc2)N=C(c2ccccc2)c2ccccc21 [BIM-18268] has a pKi [2] of 7.92.

Compound CN1C(=O)N(Cc2ccc(Cl)c(Cl)c2)N=C(c2ccccc2)c2ccccc21 [BIM-18269] has a pKi [2] of 7.28.

CN1C(=O)N(C(=O)c2ccc(F)c(F)c2)N=C(c2ccccc2)c2ccccc21 [BIM-18272] gave a pKi [2] of 8.51.

O=C1CN=C(c2ccccc2Cl)c2cc([N+](=O)[O-])ccc2N1 [CLONAZEPAM, clonazepam, reference compound] showed a pKi [2] of 5.00 and a pKi [1, 6] of 9.26.
